The source made the active and inactive calls. The rule behind the calls is not given here.
Legend:
[1] = molecular target: T1, Melatonin receptor type 1C (Xenopus laevis, UniProt P49219); assay: Effect on pigment aggregation in Xenopus laevis melanophores; type: functional
T1 sequence (P49219 whole entry): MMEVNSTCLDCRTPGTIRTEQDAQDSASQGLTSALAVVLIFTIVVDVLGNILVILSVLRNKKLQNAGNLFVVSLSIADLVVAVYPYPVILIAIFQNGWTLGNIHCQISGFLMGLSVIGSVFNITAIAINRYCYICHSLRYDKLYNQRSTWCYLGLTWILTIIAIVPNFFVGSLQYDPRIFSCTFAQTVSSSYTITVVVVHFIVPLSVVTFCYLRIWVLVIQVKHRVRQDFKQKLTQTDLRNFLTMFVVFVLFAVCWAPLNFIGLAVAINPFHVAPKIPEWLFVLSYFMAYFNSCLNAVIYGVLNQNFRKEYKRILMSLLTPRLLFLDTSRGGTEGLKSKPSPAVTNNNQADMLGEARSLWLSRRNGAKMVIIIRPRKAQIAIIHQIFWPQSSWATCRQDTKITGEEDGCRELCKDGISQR

[2] = molecular target: T2, Melatonin receptor type 1B (Homo sapiens, UniProt P49286); assay: Displacement of 2[125I]iodomelatonin from human recombinant MT2 receptor expressed in NIH3T3 cells; type: cell-based
T2 sequence (P49286 whole entry): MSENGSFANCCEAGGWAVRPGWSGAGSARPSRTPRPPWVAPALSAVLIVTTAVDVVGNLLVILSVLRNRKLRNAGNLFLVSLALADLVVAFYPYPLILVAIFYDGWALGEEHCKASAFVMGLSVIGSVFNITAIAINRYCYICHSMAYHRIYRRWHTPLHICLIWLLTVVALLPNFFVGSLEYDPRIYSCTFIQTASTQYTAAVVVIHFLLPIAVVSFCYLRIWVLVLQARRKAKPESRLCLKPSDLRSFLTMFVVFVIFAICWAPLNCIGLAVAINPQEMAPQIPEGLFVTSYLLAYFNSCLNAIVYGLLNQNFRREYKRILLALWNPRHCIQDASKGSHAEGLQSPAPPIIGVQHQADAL

[3] = molecular target: Melatonin receptor type 1A (Homo sapiens, UniProt P48039); assay: Displacement of 2[125I]iodomelatonin from human recombinant MT1 receptor expressed in NIH3T3 cells; type: cell-based
[4] = molecular target: T3, Melatonin receptor type 1C (Xenopus laevis) (UniProt P49219); assay: Effect on pigment aggregation in Xenopus laevis melanophores at 10 uM; type: functional
T3 sequence (whole entry): T1 sequence (P49219 whole entry)

Melatonin receptor type 1A, sequence (P48039 whole entry): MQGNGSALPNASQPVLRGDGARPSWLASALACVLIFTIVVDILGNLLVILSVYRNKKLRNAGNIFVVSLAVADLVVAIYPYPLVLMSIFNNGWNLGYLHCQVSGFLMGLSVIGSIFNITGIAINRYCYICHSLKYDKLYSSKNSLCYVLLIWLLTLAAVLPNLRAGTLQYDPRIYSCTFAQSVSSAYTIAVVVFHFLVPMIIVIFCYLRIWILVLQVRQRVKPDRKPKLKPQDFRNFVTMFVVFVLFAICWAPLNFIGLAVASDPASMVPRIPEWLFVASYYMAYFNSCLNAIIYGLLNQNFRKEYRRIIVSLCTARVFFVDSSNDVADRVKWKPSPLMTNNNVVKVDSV

EC50 [1] [nM] | Ki [2] [nM] | Ki [3] [nM] | Activity [4] | SMILES
0.0794 |  |  |  | COc1ccc2[nH]cc(CCNC(C)=O)c2c1 [MELATONIN]
64.6 | 2.29 | 14.1 |  | CCC(=O)NCCc1cn(C)c2c(Br)cc(OC)cc12
 | 851 | 5370 | inactive | CCCC(=O)NCCc1cn(C)c2c(-c3ccccc3)cc(OC)cc12
9.77 | 1.55 | 8.71 |  | COc1cc(C)c2c(c1)c(CCNC(C)=O)cn2C
45.7 | 1.74 | 2.69 |  | COc1cc(C)c2[nH]cc(CCNC(C)=O)c2c1
12.6 | 0.676 | 2.88 |  | CCCC(=O)NCCc1c[nH]c2c(C)cc(OC)cc12
3.47 | 0.355 | 5.13 |  | CCCC(=O)NCCc1c[nH]c2c(Br)cc(OC)cc12
31.6 | 1.1 | 1.78 |  | CCC(=O)NCCc1c[nH]c2c(C)cc(OC)cc12
24.5 | 1.32 | 10.5 |  | COc1cc(Br)c2c(c1)c(CCNC(C)=O)cn2C
16.6 | 1.35 | 19.5 |  | CCCC(=O)NCCc1cn(C)c2c(C)cc(OC)cc12
11.5 | 0.537 | 4.17 |  | CCC(=O)NCCc1c[nH]c2c(Br)cc(OC)cc12
 | 676 | 5890 | inactive | CCC(=O)NCCc1cn(C)c2c(-c3ccccc3)cc(OC)cc12
45.7 | 871 | 955 |  | CCCC(=O)NCCc1c[nH]c2c(-c3ccccc3)cc(OC)cc12
155 | 617 | 617 |  | CCC(=O)NCCc1c[nH]c2c(-c3ccccc3)cc(OC)cc12
120 | 3020 | 12900 |  | COc1cc(-c2ccccc2)c2[nH]cc(CCNC(C)=O)c2c1
339 | 457 | 1260 |  | COc1cc(-c2ccccc2)c2c(c1)c(CCNC(C)=O)cn2C
3.31 | 0.676 | 3.55 |  | COc1cc(Br)c2[nH]cc(CCNC(C)=O)c2c1
52.5 | 2.14 | 33.1 |  | CCCC(=O)NCCc1cn(C)c2c(Br)cc(OC)cc12
15.8 | 2.63 | 15.8 |  | CCC(=O)NCCc1cn(C)c2c(C)cc(OC)cc12

From ChEMBL document CHEMBL1148025, “7-Substituted-melatonin and 7-substituted-1-methylmelatonin analogues: effect of substituents on potency and binding affinity” (Bioorg Med Chem, 2007)
